Reference: patent publication US9222070B2, “Cell therapy method for the treatment of tumors” (Janssen Pharmaceuticals, Inc., priority 2001, dated 2015)

Experiments:
[1] = tested on: CD8 cells; experiment: Ex vivo CTL generation with peptide-loaded Drosophila cells; assay type: cell-based, human; conditions: for frequency of CTL generation: normal donors, summary of Table 7; for CTL activity elicited by single epitope on Drosophila cells: donor #60, peptide added alone, lysis on JY cells, vs control HBc peptide
From the text: Human CTLs from healthy subjects were immunized in vitro against tyrosinase, MART-1 and gp100 when loaded separately on Drosophila APCs and evaluated for lysis on JY cells (FIG. 4). […] Melanoma-specific CTLs from healthy subjects were induced using the full stimulation/re-stimulation protocol and tested for their ability to lyse Jurkat cells loaded with each of the of the peptides used in the stimulations (FIG. 5). […]. […] One in which the multiple peptides were loaded onto individual Drosophila cells and mixed before the primary stimulation (combo mix), or the multiple peptides were mixed and then loaded onto the Drosophila APCs (combo load).
All of the peptides were synthesized, given an identification number (PRI#) and evaluated for the ability to generate CTLs ex vivo utilizing the same method we employed for melanoma-associated, T cell peptide epitopes. CD8 cells were isolated from normal donors to determine the ability to routinely generate CTLs ex vivo with Drosophila cells loaded with known CTL peptide epitopes.
Standard ^51Cr-release assays were performed to determine CTL effector cell recognition of melanoma-associated peptide epitopes loaded onto T2 cells. […] 0.1mCi of ^51Cr was added and incubated at 37° C. in a water bath. […] The cells were pulsed with the appropriate peptide(s) at 20 μg/mL for thirty minutes. 50 μL was added to each 96-well plate each containing CD8 effector cells at 10, 2, 0.4, and 0.08×10^6/mL, which was incubated at 37° C. for six hours, spun and harvested for supernatant.
To extend the ability to raise CTLs to other tumor antigens present in a wide variety of other cancers we have selected published and novel sequences to tumor antigens common to several different tumor types.

[2] = target: T1, HLA-A2.1 molecule (Homo sapiens, UniProt P04439, D140Y/D185E/D98H/E176V/E277Q/G131W/G231S/I119V/I121R/I166T/I218V/L300P/L318F/N151K/N90K/P208A/P217A/Q86G/Q94H/R138H/R169H/T345S); experiment: Peptide binding on Drosophila cells expressing HLA-A2.1
T1 construct: expressed in transfected cells; host or cells: Drosophila melanogaster Schneider S2 cells (ATCC CRL 10974), pRmHa-3 vector, CuSO4 induction

[3] = tested on: HLA-A2.1; experiment: FACS analysis of surface expression after IFNγ induction; assay type: cell-based, human; conditions: HLA-A2.1 transfected HTB-77 cells, similar treatment protocol
Protocol: (§1) The cells were treated with 500 U/ml of IFNγ (specific activity of 25 ng/ml) for twenty-four hours prior to the initiation of the ^51Cr-release assay. […] To determine the effect of this dose of IFNg on the surface expression of both HLA-A2.1 and HER-2, a FACS analysis was performed to determine the levels of these molecules after both twenty-four and forty-eight hours of induction. FIG. 18, Panels A and B depict the FACS analysis results. […] This would explain why there is an enhance killing of the HTB-77/A2.1 cells in the presence of IFNγ. An up-regulation of this particular molecule would result in more efficient processing of the HER-2 molecule, allowing better presentation of the peptides of interest

[4] = tested on: HER-2; experiment: as above; assay type: cell-based, human
Protocol: as §1

[5] = tested on: TAP-1; experiment: Microarray DNA chip analysis of mRNA levels after IFNγ induction; assay type: cell-based, human; conditions: HTB-77/A2.1 cells after IFNγ induction
[6] = tested on: HTB-77/A2.1 cell line; experiment: 51Cr-release lysis after IFNγ pretreatment; assay type: cell-based, human; conditions: 500 U/ml for twenty-four hours prior to 51Cr-release assay
Protocol: as §1

[7] = tested on: breast adenocarcinoma cell line (ATCC; HTB-131) transfected with HLA-A2.1; experiment: Tumor lysis by HER-2 peptide-specific CTL effectors; assay type: cell-based, human; conditions: cell line transfected with HLA-A2.1
[8] = tested on: CD8+ T cells; experiment: HLA-A2.1 tetramer staining of HER-2 peptide-specific CTLs; assay type: cell-based, human; conditions: donor 262, after four-week ex vivo stimulation protocol
Protocol: The cells were labeled with FITC- or PE conjugated monoclonal antibodies by incubation at 4° C. for 30 minutes in FACS buffer (1% BSA, 0.02% NaN3 in PBS), followed by a wash in the same buffer. Cells were fixed in 0.5% formaldehyde prior to data acquisition and analysis on a FACScan flow cytometer (Becton Dickinson) with its CellQuest software. Nonspecific staining was measured with the same secondary antibody used to label purified primary antibodies, or an isotype-matched control when the primary antibodies were directly labeled. Tetrameric staining was performed with HLA-A2.1 specific HIVgag tetrameric molecules (Beckman Coulter) harboring the sequence [sequence] […] PE-labeled tetrameric HLA-A2.1-peptide complexes were used in conjunction with fluorescein isothiocyanate (FITC)-labeled anti-human CD8a (BD PharMagin) monoclonal antibodies to stain epitope-specific CD8+ T cells as described in package insert. Samples were analyzed by two-color flow cytometry on a Becton Dickinson FACScan, and gated CD8+ T cells were examined for staining with tetrameric HLA-A2.1-peptide complexes.

| Substance | frequency of CTL generation [1] | binding to the HLA-A2.1 molecule on transfected Drosophila cells [2] | CTL activity elicited by single epitope on Drosophila cells [1] | also measured |
| --- | --- | --- | --- | --- |
| CLTSTVQLV [Peptide 826] | highest frequency of CTL generation |  |  |  |
| ELVSEFSRM [Peptide 863] | highest frequency of CTL generation | weak to moderate binders |  |  |
| IFNγ: interferon gamma used to pretreat tumor cell lines at 500 U/ml |  |  |  | HLA-A2.1 surface expression [3]: neither HER-2 nor HLA-A2.1 demonstrated an increase; HER-2 surface expression ([4]; HLA-A2.1 transfected HTB-77 cells, similar treatment protocol): neither HER-2 nor HLA-A2.1 demonstrated an increase; HER-2 surface expression ([4]; HTB-77 cells, twenty-four and forty-eight hours after induction): no enhancement; level of TAP-1 expression (mRNA); also HLA-DM and -DR, Cathepsin S and D and Caspase 5 [5]: increase in the level of TAP-1 expression; lysis of HLA-A2.1 transfected cell line [6]: enhanced lysis |
| ITDQVPFSV [Peptide 817] |  |  | CTL activity was elicited |  |
| VMAGVGSPYV [Peptide 861] | highest frequency of CTL generation | weak to moderate binders |  | lysis of tumor cell line by CTLs specific for the peptide [7]: could lysis this tumor cell line; peptide-specific CTLs, tetramer-positive [8]: 15.1% |
| YMNGTMSQV [Peptide 689] |  |  | CTL activity was elicited |  |
